Test results published in paper PMC11984388, “A brain-accessible peptide modulates stroke inflammatory response and neurotoxicity by targeting BDNF-receptor TrkB-T1 specific interactome” (Theranostics, 2025).
Residues, ends and D or L forms follow the SMILES beside them. *: point of attachment. Biotin = O=C1N[C@H]2[C@H](CS[C@H]2CCCCC(=O)*)N1

System: RhoGDI
Assay: Western blot of total RhoGDI levels
Type: cell-based, rat
Conditions: peptide 25 µM 30 min, mean, n = 6-7 (Fig S3)
Experimental: Ce lls were lyse d in RI P A buffer (50 mM Tris-HCl pH 8.0, 150 mM NaC l, 1% sodium deoxycholate , 1% NP-40, 0.1% SDS, 1 mM DT T), supple me nted with protease and phospha tase inhibitors as above, for 30 min at 4 °C. Then, cell lysa te s were sonic ated using a Bioruptor apparatus and centrifuga ted at 4 °C for 20 min at 10,000 rpm. The protein conce ntration in lysa te s was es tablished with BC A Prote in As say Kit (Thermo Fisher) follow ed by 5 min denaturalization in SDS-sa mple buffer at 95º. Equal amounts of total lysa te s were resolved in Tris-Glycine SDS-PAGE and transferre d to a nitroc ellulos e membrane (GE Healthca re ) in 25 mM Tris HCl pH 8.3, 250 mM glycine and 10% methanol, using an electr ic curre nt of 400 mA for 70 min. After transfer, membranes were sta ine d with a Ponceau S solution to chec k for its effic acy. Then, membranes were blocked for 30 min with a 5% non-fat […]
dry milk solution in Tris Buffere d Saline-Tween (TBS-T, 20 mM Tris HCl pH 7.5, 137 mM NaC l, 0.05% Tween-20) and incubated overnight at 4°C with prima ry antibodies . Next, membranes were was hed with TBS-T and incubated with the appropria te anti-rabbit or anti-mouse peroxidase-conjugated se condary antibodies (Bethyl) for 1 h. To conclude, immunore activity was detecte d using Clar ity Wes ter n ECL Blotting Substrate (BioRad) and band intensity was quantified by dens itome tric analys is (Photos hop, Adobe). Levels of the protein of interest were normalized using those of neuron- spe cific enolas e (NSE) present in the sa m e sa mple and express ed relative to values obtained in their respec tive controls, arbitrarily given a 100% value. NSE was use d as a neuronal loading control sinc e it is not af fe cted by NM DA treatment. Exceptionally, levels of TrkB -T1 were normalized to those of ß- actin in the comparison of prima ry mixed cultures and those of as trocytes . Multiple independent experiments were car r ied out and quantitated as detailed in the figure legends .
Cell transfection and gene reporter ass ays
Plasmids contained minimal CREB or MEF2 response elements upstream firefly luciferase reporter gene (respectively, pCRE or pMEF2; see details in Supplementary Table 1). Primary cultures, without the AraC treatment, were transfected at 11 DIVs with 0.4 µg of plasmids using Lipofectamine 2000. […] Protein extracts were obtained using Passive Lysis Buffer (Promega, Cat# E1941) and luciferase activity was detected by a luminometer (GloMax 96 microplate luminometer, Promega), using REAP buffer (25 mM glycylglycine, 15 mM SO4Mg, 4 mM EGTA, 15 mM potassium phosphate pH 7.8, 3.3 mM ATP, 1 mM DTT, 75 µM luciferin). […]

[1] = then BDNF 100 ng/ml 30 min, relative to basal Bio-TMyc (100%)

Compound	RhoGDI total levels (basal, relative to basal conditions with Bio-TMyc (100%)) [%]	RhoGDI total levels [1] [%]	RhoGDI total levels (then NMDA 30 min, relative to basal Bio-TMyc (100%)) [%]
CC[C@H](C)[C@H](NC(=O)[C@H](CC(C)C)NC(=O)[C@H](CCCCN)NC(=O)[C@H](CCC(N)=O)NC(=O)[C@H](CCC(=O)O)NC(=O)[C@H](CCC(=O)O)NC(=O)[C@H](C)NC(=O)[C@H](CCCNC(=N)N)NC(=O)[C@H](CCCNC(=N)N)NC(=O)[C@H](CCCNC(=N)N)NC(=O)[C@H](CCC(N)=O)NC(=O)[C@H](CCCNC(=N)N)NC(=O)[C@H](CCCNC(=N)N)NC(=O)[C@H](CCCCN)NC(=O)[C@H](CCCCN)NC(=O)[C@H](CCCNC(=N)N)NC(=O)CNC(=O)[C@H](Cc1ccc(O)cc1)NC(=O)CCCC[C@@H]1SC[C@@H]2NC(=O)N[C@@H]21)C(=O)N[C@@H](CO)C(=O)N[C@@H](CCC(=O)O)C(=O)N[C@@H](CCC(=O)O)C(=O)N[C@@H](CC(=O)O)C(=O)N[C@@H](CC(C)C)C(=O)N[C@@H](CC(C)C)C(=O)N[C@@H](CCCNC(=N)N)C(N)=O [Bio-TMyc, reference compound] (Biotin-YGRKKRRQRRRAEEQKLISEEDLLR-NH2)	100	92	–
CC[C@H](C)[C@H](NC(=O)[C@H](CCCCN)NC(=O)[C@H](Cc1c[nH]cn1)NC(=O)[C@H](Cc1ccccc1)NC(=O)[C@H](CC(C)C)NC(=O)[C@@H](NC(=O)[C@H](Cc1ccccc1)NC(=O)[C@H](CCCNC(=N)N)NC(=O)[C@H](CCCNC(=N)N)NC(=O)[C@H](CCCNC(=N)N)NC(=O)[C@H](CCC(N)=O)NC(=O)[C@H](CCCNC(=N)N)NC(=O)[C@H](CCCNC(=N)N)NC(=O)[C@H](CCCCN)NC(=O)[C@H](CCCCN)NC(=O)[C@H](CCCNC(=N)N)NC(=O)CNC(=O)[C@H](Cc1ccc(O)cc1)NC(=O)CCCC[C@@H]1SC[C@@H]2NC(=O)N[C@@H]21)C(C)C)C(=O)N1CCC[C@H]1C(=O)N[C@@H](CC(C)C)C(=O)N[C@@H](CC(=O)O)C(=O)NCC(N)=O [Bio-sTT1Ct] (Biotin-YGRKKRRQRRRFVLFHKIPLDG-NH2)	–	93	91
